Results taken from US8871786B2, “Azaindazole amide compounds as CCR1 receptor antagonists” (Boehringer Ingelheim International GmbH, priority 2010, dated 2014).

target: T1, CCR1 (Homo sapiens, UniProt P32246); experiment: Calcium flux assay in CCR1 transfected cells (block of CCR1/MIP-1α interaction); type: cell-based; settings: cells stably expressing recombinant CCR1 and G-alpha-16; MIP-1 alpha at EC80; mean
T1 sequence (P32246 1-355): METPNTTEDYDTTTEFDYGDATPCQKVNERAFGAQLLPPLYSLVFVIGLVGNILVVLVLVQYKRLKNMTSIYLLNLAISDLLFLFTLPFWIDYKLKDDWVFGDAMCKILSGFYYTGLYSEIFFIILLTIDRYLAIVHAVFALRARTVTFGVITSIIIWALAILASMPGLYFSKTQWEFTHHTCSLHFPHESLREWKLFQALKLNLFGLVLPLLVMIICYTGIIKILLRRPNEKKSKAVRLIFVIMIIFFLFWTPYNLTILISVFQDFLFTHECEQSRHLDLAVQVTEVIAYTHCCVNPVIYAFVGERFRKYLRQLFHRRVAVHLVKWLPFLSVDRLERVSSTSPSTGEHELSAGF
Experimental: Compounds are assessed for the ability to block the interaction of CCR1 and MIP-1α in a functional cellular assay measuring calcium flux in CCR1 transfected cells.
Non-adherent cells purchased from Chemicon Corporation (HTS005C), stably expressing recombinant CCR1 and G-alpha-16 are grown in RPMI 1640 medium (Mediatech 10-080-CM) supplemented with 10% FBS, 0.4 mg/mL Geneticin and penicillin/streptomycin. On the day of the assay, the cells are loaded with Calcium 4 dye (Molecular Devices R7448) with Probenecid (Invitrogen P346400) at 8E5 cells/mL for 1 hour at room temperature. After 1 hour, they are seeded in a 384-well tissue culture-treated plate at a density of 20,000 cells/well. Appropriately diluted test compound is added to the well to achieve a top concentration of 3,000 nM (diluted 4-fold with 10 doses total). The final concentration of DMSO is 1%. The buffer is HBSS (Invitrogen 14025) with 20 mM HEPES at pH 7.4. The cells incubate 30 minutes at 37 C and then 30 minutes at room temperature. The plates are transferred to the HAMAMATSU FDSS6000 where MIP-1 alpha in 1% BSA is added at the EC80 final concentration. All plates must be read within 4 hours of the start of dye-loading. Wells+/−MIP-1 alpha containing diluted DMSO instead of compound serve as the controls. Data are analyzed using Activity Base software.

| IC50 | Compound |
| --- | --- |
| 19 nM | Cc1cc(C)c(NC(=O)c2cncc3c2cnn3-c2ccc(F)cc2)c(C)c1 |
| 14 nM | Cc1onc(-c2ccccc2)c1NC(=O)c1cncc2c1cnn2-c1ccc(F)cc1 |
| 30 nM | Cc1cc(-c2nnco2)ccc1NC(=O)c1cncc2c1cnn2-c1ccc(F)cc1 |
| 73 nM | Cn1nccc1-c1cccc(NC(=O)c2cncc3c2cnn3-c2ccc(F)cc2)c1 |
| 6.9 nM | Cc1noc(C)c1NC(=O)c1cncc2c1cnn2-c1ccc(F)cc1 |
| 2.1 nM | Cc1cc(C)c(S(C)(=O)=O)cc1NC(=O)c1cncc2c1cnn2-c1ccc(F)cc1 |
| 66 nM | Cc1cc(C(=O)N(C)C)ccc1NC(=O)c1cncc2c1cnn2-c1ccc(F)cc1 |
| 93 nM | CNC(=O)c1ccc(NC(=O)c2cncc3c2cnn3-c2ccc(F)cc2)c(C)c1 |
| 21 nM | Cc1ccnc(C)c1NC(=O)c1cncc2c1cnn2-c1ccc(F)cc1 |
| 2.8 nM | Cc1cc(Cl)cc(C)c1NC(=O)c1cncc2c1cnn2-c1ccc(F)cc1 |
| 24 nM | COC(=O)c1ccc(NC(=O)c2cncc3c2cnn3-c2ccc(F)cc2)c(C)c1 |
| 36 nM | Cc1cccc(Cl)c1NC(=O)c1cncc2c1cnn2-c1ccc(F)cc1 |
| 8.8 nM | Cc1nc(Cl)ccc1NC(=O)c1cncc2c1cnn2-c1ccc(F)cc1 |
| 84 nM | Cn1ncc(-c2ccccc2)c1NC(=O)c1cncc2c1cnn2-c1ccc(F)cc1 |
| 82 nM | Cc1ccc(NC(=O)c2cncc3c2cnn3-c2ccc(F)cc2)c(Cl)n1 |
